Read-outs that look alike come from different tables or passages of the source.
Legend:
[1] = test system: Key Broadleaf Weed and Crop Species; assay: Post-emergent Test II herbicidal activity (Table 5); type: in vivo; conditions: post-emergence, 336 h, 140 g ai/ha, post-emergent, 14 days after application
Outline: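 Scoring: visual, 0–100% injury at 14 d versus untreated. Treatment: overhead track spray, 187 L/ha, onto plants at the first–second true leaf stage. Growth: greenhouse, ~15 h light, 23–29 °C day, 22–28 °C night.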

[2] = test system: Key Grass and Sedge Weeds as well as Grass Crops; assay: Post-emergent Test II herbicidal activity (Table 6); type: in vivo; conditions: post-emergence, 336 h, application rate 140 g ai/ha
Protocol: Post-emergent Test II: Seeds or nutlets of the desired test plant species were planted in Sun Gro Metro-Mix® 360 planting mixture, which typically has a pH of 6.0 to 6.8 and an organic matter content of about 30 percent, in plastic pots with a surface area of 64 square centimeters. When required to ensure good germination and healthy plants, a fungicide treatment and/or other chemical or physical treatment was applied. The plants were grown for 7-21 d in a greenhouse with an approximate 15 h photoperiod which was maintained at about 23-29° C. during the day and 22-28° C. during the night. Nutrients and water were added on a regular basis and supplemental lighting was provided with overhead metal halide 1000-Watt lamps as necessary. The plants were employed for testing when they reached the first or second true leaf stage.
A weighed amount, determined by the highest rate to be tested, of each test compound was placed in a 25 mL glass vial and was dissolved in 4 mL of a 97:3 v/v mixture of acetone and DMSO to obtain concentrated stock solutions. […] The concentrated stock solutions obtained were diluted with 20 mL of an aqueous mixture containing acetone, water, isopropyl alcohol, DMSO. Atplus 411F crop oil concentrate, and Triton® X-155 surfactant in a 48.5:39:10:1.5:1.0:0.02 v/v ratio to obtain spray solutions containing the highest application rates. Additional application rates were obtained by serial dilution of 12 mL of the high rate solution into a solution containing 2 mL of 97:3 v/v mixture of acetone and DMSO and 10 mL of an aqueous mixture containing acetone, water, isopropyl alcohol, DMSO, Atplus 411F crop oil concentrate, and Triton X-155 surfactant in a 48.5:39:10:1.5:1.0:0.02 v/v ratio to obtain ½×, ¼×, ⅛× and 1/16× rates of the high rate. Compound requirements are based upon a 12 mL application volume at a rate of 187 liters per hectare (L/ha). Formulated compounds were applied to the plant material with an overhead Mandel track sprayer equipped with 8002E nozzles calibrated to deliver 187 L/ha over an application area of 0.503 square meters at a spray height of 18 inches (43 cm) above the average plant canopy height. Control plants were sprayed in the same manner with the solvent blank.
The treated plants and control plants were placed in a greenhouse as described above and watered by subirrigation to prevent wash-off of the test compounds. After 14 d, the condition of the test plants as compared with that of the untreated plants was determined visually and scored on a scale of 0 to 100 percent where 0 corresponds to no injury and 100 corresponds to complete kill.

[3] = ABUTH: velvetleaf (Abutilon theophrasti), read-out: Visual Growth Reduction (%) 14 Days After Application ABUTH
[4] = AMARE: redroot pigweed (Amaranthus retroflexus), read-out: Visual Growth Reduction (%) 14 Days After Application AMARE
[5] = BRSNN: oilseed-rape, canola (Brassica napus), read-out: Visual Growth Reduction (%) 14 Days After Application BRSNN
[6] = CHEAL: lambsquarters (Chenopodium album), read-out: Visual Growth Reduction (%) 14 Days After Application CHEAL
[7] = EPHHL: wild poinsettia (Euphorbia heterophylla), read-out: Visual Growth Reduction (%) 14 Days After Application EPHHL
[8] = HELAN: sunflower (Helianthus annuus), read-out: Visual Growth Reduction (%) 14 Days After Application HELAN
[9] = VIOTR: wild pansy (Viola tricolor), read-out: Visual Growth Reduction (%) 14 Days After Application VIOTR
[10] = Triticum aestivum, TRZSS (wheat), read-out: Visual Growth Reduction (%) 14 Days After Application, TRZSS
[11] = CYPES: yellow nutsedge (Cyperus esculentus), read-out: Visual Growth Reduction (%) 14 Days After Application, CYPES
[12] = DIGSA: crabgrass (Digitaria sanguinalis), read-out: Visual Growth Reduction (%) 14 Days After Application, DIGSA
[13] = ECHCG: barnyardgrass (Echinochloa crus-galli), read-out: Visual Growth Reduction (%) 14 Days After Application, ECHCG
[14] = ORYSA: rice (Oryza sativa), read-out: Visual Growth Reduction (%) 14 Days After Application, ORYSA
[15] = SETFA: giant foxtail (Setaria faberi), read-out: Visual Growth Reduction (%) 14 Days After Application, SETFA
[16] = SORVU: grain sorghum (Sorghum vulgare), read-out: Visual Growth Reduction (%) 14 Days After Application, SORVU
[17] = ZEAMX: maize, corn (Zea mays), read-out: Visual Growth Reduction (%) 14 Days After Application, ZEAMX

SMILES	pest or weed control at 140 g/ha [1, 3] [%]	pest or weed control at 140 g/ha [1, 4] [%]	pest or weed control at 140 g/ha [1, 5] [%]	pest or weed control at 140 g/ha [1, 6] [%]	pest or weed control at 140 g/ha [1, 7] [%]	pest or weed control at 140 g/ha [1, 8] [%]	pest or weed control at 140 g/ha [1, 9] [%]	pest or weed control at 140 g/ha [2, 10] [%]	pest or weed control at 140 g/ha [2, 11] [%]	pest or weed control at 140 g/ha [2, 12] [%]	pest or weed control at 140 g/ha [2, 13] [%]	pest or weed control at 140 g/ha [2, 14] [%]	pest or weed control at 140 g/ha [2, 15] [%]	pest or weed control at 140 g/ha [2, 16] [%]	pest or weed control at 140 g/ha [2, 17] [%]	melting point [°C]
COC(=O)c1nc(-c2ccc(C#N)cc2)nc(N)c1OC [Compound 130]	0 to 29	0 to 29	0 to 29	0 to 29	95 to 100	85 to 94	0 to 29	0 to 29	0 to 29	0 to 29	0 to 29	0 to 29	0 to 29	0 to 29	0 to 29	185.1 to 186.9
N#Cc1ccc(-c2nc(C(=O)O)c(Cl)c(N)c2Cl)cc1 [Compound 14]	0 to 29	0 to 29	0 to 29	95 to 100	0 to 29	95 to 100	0 to 29	0 to 29	0 to 29	0 to 29	0 to 29	0 to 29	0 to 29	0 to 29	0 to 29	178 to 179.7
COC(=O)c1nc(-c2ccc(OC(F)(F)F)cc2)c(Cl)c(N)c1Cl [Compound 170]	0 to 29	0 to 29	0 to 29	60 to 74	0 to 29	85 to 94	0 to 29	0 to 29	0 to 29	0 to 29	0 to 29	0 to 29	0 to 29	0 to 29	0 to 29	178.9 to 180.2
Nc1cc(-c2ccc(OC(F)F)cc2)nc(C(=O)O)c1Cl [Compound 10]	95 to 100	95 to 100	60 to 74	75 to 84	95 to 100	85 to 94	0 to 29	60 to 74	0 to 29	75 to 84	85 to 94	0 to 29	95 to 100	75 to 84	60 to 74	170.4 to 172.1
COc1c(N)nc(-c2ccc(OC(F)(F)F)cc2)nc1C(=O)O [Compound 102]	0 to 29	0 to 29	0 to 29	0 to 29	95 to 100	60 to 74	0 to 29	0 to 29	0 to 29	0 to 29	0 to 29	0 to 29	0 to 29	0 to 29	0 to 29	171 to 172.1
COC(=O)c1nc(-c2ccc(OC(F)F)cc2)c(Cl)c(N)c1Cl [Compound 15]	85 to 94	0 to 29	0 to 29	30 to 44	0 to 29	95 to 100	0 to 29	0 to 29	0 to 29	0 to 29	0 to 29	0 to 29	0 to 29	0 to 29	0 to 29	102.4 to 103.6
Nc1c(Cl)c(C(=O)O)nc(-c2ccc(OC(F)F)cc2)c1Cl [Compound 33]	60 to 74	0 to 29	30 to 44	0 to 29	0 to 29	95 to 100	0 to 29	0 to 29	0 to 29	0 to 29	0 to 29	0 to 29	0 to 29	0 to 29	0 to 29	146.3 to 147.6

From patent US9113629B2, “4-amino-6-(4-substituted-phenyl)-picolinates and 6-amino-2-(4-substituted-phenyl)-pyrimidine-4-carboxylates and their use as herbicides” (DOW AGROSCIENCES LLC, priority 2013, dated 2015)
